Data set [1] deals with HepG2 cells. Briefly: MTT cell viability assay. In kind it is cell-based. The following applies: Homo sapiens, HepG2, 24 h, read-out: IC50, cell proliferation. On the procedure: (§1) Cell viability was determined by detecting the absorbance at 570 nm in a microquant plate reader (Thermo Fisher), triplicate wells were analyzed at each dose.
Background: Formazan colour is commonly taken as a measure of viable cells.

Another data set has as its system MHCC-97H cells. As to the kind of experiment: MTT cell viability assay. The format is cell-based. The following applies: Homo sapiens, MHCC97H, 24 h, read-out: IC50, cell proliferation. On the procedure: as §1
For another data set, the system named is MHCC-97L cells. As to the kind of experiment: MTT cell viability assay. The following applies: Homo sapiens, MHCC97L, 24 h, read-out: IC50, cell proliferation. The format is cell-based. How it is done: as §1
Another data set relates to B16-F10 cells. Briefly: MTT cell viability assay. To be noted: Mus musculus, B16-F10, 24 h, read-out: IC50, cell proliferation. In kind it is cell-based, murine. On the procedure:
as §1

A further data set deals with L02 cells. Briefly: MTT cell viability assay, normal liver cells. In kind it is cell-based. The following applies: L02 normal human liver cells, 24 h. How it is done: as §1
The next data set concerns HUVEC cells. As to the kind of experiment: MTT cell viability assay, endothelial cells. In kind it is cell-based. To be noted: Homo sapiens, 24 h. On the procedure: as §1
Data set [2] concerns nine cancer cell lines (MHCC-97H, MHCC-97L, HepG2, M619, MDA-MB-231, MCF-7, HT29, SW620, B16-F10). As to the kind of experiment: MTT cell viability assay, span over nine cancer cell lines. The format is cell-based. The following applies: 24 h, read-out: IC50 to suppress cell proliferation, span over nine cancer cell lines. How it is done: as §1
In data set [3] the test system is HepG2 cells. Briefly: Transwell matrigel invasion assay. The format is cell-based, human. The following applies: HepG2, 5 μM, 24 h; control 88 ± 5. How it is done:
An invasion assay was carried out using 24-well plate. The […] pore-sized transwell inserts were coated with matrigel at 1 mg/mL on the upper chamber. The lower chamber was filled with medium containing 20% FBS as chemoattractant agents. The coated filter and upper chamber were laid over the lower chamber. […] After incubation for 24 h at 37°C, cells were fixed in methanol for 20 min. The cells on the inner layer were softly removed with a cotton swab, and the adherent cells on undersurface of the insert were stained with 0.1% crystal violet dye for 15 min. The filters were washed with PBS and images were taken. The invading cells were counted and photographed under a light microscope (Zeiss, Germany) at × 200 magnification. Five fields were counted per filter in each group and the experiment was conducted in triplicate.

For data set [4], the system named is HepG2 cells. Briefly: Wound healing migration assay. In kind it is cell-based, human. The following applies: HepG2, 24 h after wounding; UA 5 μM, US597 0.2, 1, 5 μM. How it is done: SW620, B16-F10 and HepG2 cells (5 × 10^5 cells per well) were plated in 6-well plates for 24 h, a perpendicular scratch wound was generated by scratching with a 10 μL pipette tip. […] Cells were photographed using a light microscope (Zeiss, Germany) at 0 and 24 h after the drug treatment. The distance that cells migrated through the scribed area was determined by measuring the wound width at 24 h after treatment, and subtracting it from the wound width at 0 h. Experiments were repeated at least three times.

In data set [5] the test system is ICAM-1. Briefly: qRT-PCR of mRNA in IL-1β-stimulated HUVECs. The format is cell-based, human. To be noted: IL-1β 1 ng/mL 4 h, then 24 h, UA 5 μM, US597 0.2, 1, 5 μM.
Data set [6] concerns VCAM-1. As to the kind of experiment: qRT-PCR of mRNA in IL-1β-stimulated HUVECs. The format is cell-based, human. To be noted: IL-1β 1 ng/mL 4 h, then 24 h, 5 μM.
Data set [7] relates to ICAM-1. As to the kind of experiment: Flow cytometry of surface expression on IL-1β-stimulated HUVECs. The format is cell-based, human. To be noted: 5 μM, 24 h. How it is done: (§2) Cells expression of ICAM-1, VCAM-1, E-selectin, integrin α4, α5, α6 and β1 were performed via flow cytometry. […] After incubation, the cells were washed twice with PBS and collected for staining. The cells and primary antibodies were incubated at 4°C for 20 min in the dark. After washing with staining buffer, cell adhesion molecule (ICAM-1, VCAM-1 and E-selectin) and integrins (integrin α6 and β1) expression on cell-surface were measured by BD FACSAriaIII flow cytometry. The data were processed by FlowJo software and expressed as the mean fluorescent intensities.
On the technique in general: In flow cytometry, cells or beads pass a laser one at a time.

In data set [8] the test system is VCAM-1. Described as above. The format is cell-based, human. The following applies: 5 μM, 24 h. On the procedure:
as §2

Data set [9] deals with integrin α6, integrin β1, FAK, Src, paxillin and PTEN. As to the kind of experiment: Western blot of focal adhesion signaling proteins in HepG2 cells. In kind it is cell-based, human. To be noted: 24 h, UA 5 μM, US597 0.2, 1, 5 μM. How it is done:
Cell dishes were washed with cold phosphate-buffered saline and treated with lysis buffer for several seconds at an ice-cold bath, and then cell lysates were clarified by centrifugation at 12,000 g for 5 min under 4°C and the supernatants were recovered. The concentrations of proteins were determined by the BCA method. Samples with equivalent amounts of proteins were resolved by SDS-PAGE using a 10% gel. Proteins were transferred to a polyvinyldene difluoride (PVDF) membrane. The membranes were washed for ten minutes with TBS (20 mM Tris, 160 mM NaCl) and were blocked by blocking solution (10 mM Tris-HCl (pH 7.4), 125 mM NaCl, 0.1% Tween 20, and 5% skim milk). The blots were washed three times with TBST(20 mM Tris, 160 mM NaCl, 0.1% Tween 20), and they were incubated with specific primary antibodies diluted 1:1000 in TBST solution overnight at 4°C. Subsequently, the blots were washed three times with TBST (20 mM Tris, 160 mM NaCl, 0.1% Tween 20), and then the blots were incubated with secondary antibody (horseradish peroxidase conjugated goat anti-rabbit-IgG) diluted 1:5000 in TBST solution for 2 h at 37°C. […] Chemiluminescent signals were generated using a Super Signal West Pico Chemiluminescent Substrate kit (Pierce), and detected by using the ChemiDoc XRS system (Bio-Rad). The target proteins expression was quantified by use of Image Lab analysis software (Bio-Rad).
On the technique in general: In western blotting, separated proteins are transferred to a membrane and probed.

In data set [10] the test system is B16-F10 melanoma lung metastasis. Briefly: B16-F10/C57BL/6 mouse melanoma lung metastasis model. In kind it is in vivo, C57BL/6 mice. The following applies: 80 mg/kg/day oral, 28 days. How it is done: (§3) To establish the lung metastasis model, B16-F10 cells were harvested, washed with serum-free RPMI 1640 and resuspended to give the appropriate concentrations in PBS, and injected into the tail vein of C57BL/6 mice at a density of 5 × 10^4/200 μL. […] Mice weight was measured every four days for 7 times. Mice were sacrificed (n = 6) at the 28st days after tumor inoculation. The heart, liver, spleen, lung, kidney and small intestine were excised, washed with PBS, and fixed in 10% neutral buffered formalin, and these tissues were then paraffin embeddedand stained with hematoxylin and eosin (H&E). The number of surface tumor nodules was determined by visual inspection using a magnifying glass, and histological observations were performed under a microscope (Zeiss, Germany).

Data set [11] can be described thus: Toxicity in tumor metastatic mice (body weight, histopathology, blood analysis). The following applies: 28 days. The format is in vivo, C57BL/6 mice. How it is done:
as §3

For data set [12], the system named is ICAM-1. Briefly: ICAM-1 immunohistochemistry of lung tissue. In kind it is in vivo, C57BL/6 mice. To be noted: UA group and high dose US597 group, P < 0.01. How it is done: Frozen sections (6 μm) were stained with anti-ICAM-1 antibody as previously described. ICAM-1 expression in lung tissue was performed with avidin-biotin complex (ABC) method. Results for ICAM-1 positive cells are shown as × 200 magnification.

As to `C[C@H]1[C@H](C)CC[C@]2(C(=O)O)CC[C@]3(C)C(=CC[C@@H]4[C@@]5(C)CC[C@H](O)C(C)(C)[C@@H]5CC[C@]43C)[C@H]12` [UA, 3β-hydroxy-urs-12-en-28-oic acid], the IC50 is 33.1 µM with HepG2 cells [1]; 36.1 µM with MHCC-97H cells; 32.2 µM in the data set on MHCC-97L cells; 31.7 µM in the data set with B16-F10 cells; 41.9 µM in the data set with L02 cells; 51.1 µM in the data set with HUVEC cells. For the same compound, the IC50 in data set [2] lay within 31.7 to 60.1 µM. Also, the “average number of invaded cells” value in the data set with HepG2 cells [3] amounted to 75 ± 3. The “cell migration in wound healing assay” value with HepG2 cells [4] is “showed less migration in wound area”. Besides, the “ICAM-1 mRNA expression” value in the data set on ICAM-1 [5] is listed as “inhibited the induction”. Also, in the data set with VCAM-1 [6], the “VCAM-1 mRNA expression” value is given as “almost no change”. Moreover, the “ICAM-1 expression, % of control” value with ICAM-1 [7] is reported as “no significant effect”. For the same compound, the “VCAM-1 expression, % of control” value in the data set with VCAM-1 [8] is “no significant effect”. Further, the “protein expression of integrin α6, integrin β1, FAK, Src, paxillin and PTEN” value in data set [9] is reported as “the effect was prominent”. In addition, in data set [10], the “inhibitory rate, number of lung metastatic nodules” value is 14.45%. Further, the LYMPH in data set [11] (80 mg/Kg, normal range 0.9 – 9.3, control 6.82 ± 2.17) is reported as 3.65 ± 1.48 × 10^9/L. For the same compound, in [11] (80 mg/Kg, normal range 1.8 – 10.7, control 9.31 ± 1.28), the WBC is recorded as 7.14 ± 0.33 × 10^9/L. Further, the RBC in [11] (80 mg/Kg, normal range 6.36 – 9.42, control 9.04 ± 0.27) is 8.84 ± 2.31 × 10^12/L. Also, the HGB in [11] (80 mg/Kg, normal range 110.0 – 151.0, control 136.42 ± 1.15) was 131.56 ± 0.89 g/L. In [11] (80 mg/Kg, normal range 592 – 2972, control 1583 ± 126), the PLT is recorded as 1461 ± 251 × 10^9/L. In data set [11] (80 mg/kg daily oral), the animal body loss result is on record as “did not induce significant animal body loss”. Also, the “histopathology of heart, liver, spleen, kidney and small intestine” value in [11] (80 mg/kg daily oral, H&E) is reported as “no remarkable histopathological abnormalities or lesions”. In addition, the “ICAM-1 expression in lung tissue vs control” value in the data set on ICAM-1 [12] was “significantly decreased”.
